Results as given in patent publication US20240174631A1, “COMPOUNDS, COMPOSITIONS, AND METHODS FOR MODULATING FGF ACTIVITY” (Recovery Therapeutics, Inc., priority 2021, published 2024).
Blank lines part the entries; values can stand above or below the compound they belong to.

Columns and labels:
FGF2 = target: T1, FGF2 (Homo sapiens, UniProt P09038); assay: Thermal shift assay (TSA) of FGFR1/FGF2 complex, FGF2 melting peak; type: binding; settings: for ΔTm at 25 µM: 25 μM compound; for ΔTm at 2 µM: 2 μM compound; for ΔTm at 10 µM: 10 μM compound; for ΔTm at 100 µM: 100 μM compound
T1 construct: made in house; host or cells: Escherichia coli BL21 (DE3) Star
From the text: (§1) TSA was utilized to biophysically characterize the recombinant human FGFR1/FGF2 complex in the presence or absence of compounds. The assay functions by protein denaturation over a temperature gradient. During protein unfolding, exposed hydrophobic regions bind a dye and fluoresce due to solvent relaxation effects. Changes in the melting temperature of the protein complex in the presence of each compound were monitored and compounds were screened/ranked using this method.
One Shot BL21 (DE3) Star Escherichia coli competent cells (Thermo Fisher) were transformed with a relevant FGF2 plasmid and inoculated onto Ampicillin Luria Broth/Agar plates. Two hundred milliliter portions of Terrific Broth starter cultures were used to inoculate 9 L cultures with ampicillin at a concentration of 100 μg/mL. Cultures were grown to an O.D.600 near 1.0 at 37° C., and induced with IPTG overnight at 18° C. The cells were harvested at 7000 RPM in rotor 6000 for 5 min at 4° C. and stored at −80° C. Bacterial pellets were resuspended in 25 mM Hepes-NaOH, pH 7.5, 250 mM NaCl, and the cells were lysed in 3 cycles on/off for 3 minutes each at 4° C. via sonication. After centrifugation for 30 minutes at 16,000 RPM at 4° C., the isolated pellets were discarded, and the supernatant was filtered supernatant through a […] PES filter using 100 mL superloop. The lysate was purified over a 5 mL S column by washing the column with Lysis buffer for 5 CV then eluting using gradient from 250 mM to 1 M NaCl over 20 CV. The fractions containing FGF2 were identified via SDS-PAGE gel (Expected Mw: 15.2 KDa). The protein was collected and diluted in 20 mM Tris-HCl pH 8.0, 25 mM MgCl2 buffer in order to reach a NaCl concentration of 150 mM. The purified FGF2 was concentrated and stored at −80° C.
(§2) Thawed aliquots of purified FGF2 (1.0 mg/mL) and FGFR1 (1.6 mg/mL) proteins were mixed in a 1:1 molar ratio (64 μM: 64 μM) on ice for 30 min at 4° C. and plated prior to the thermal shift assay (TSA). Complex formation was verified by loading the complexed material on a size exclusion column (superdex 300GL S200) and observing the monodisperse peak corresponding to the FGF2/FGFR1 complex (˜40 kDa). Compounds of the invention were screened in dose response format (0-100 μM) with the FGF2/FGFR1 complex in triplicates. FGF2/FGFR1/compound complexes were mixed in a 1000:1 ratio with Sypro Orange dye (Sigma-Aldrich). The samples were processed using a Bio-Rad CFX C96 Touch quantitative polymerase chain reaction and run using the FRET assay settings with a heating ramp of 0.3° C./s cycling from 4 to 100° C. Data analysis was performed using the Bio-Rad CFX Manager Software (version 3.1, Bio-Rad) and changes in the melting temperature (Tm) of the complex in the presence of each compound were monitored. The results are shown in Tables 2 and 3 below and also in FIG. 1 (for Compound 2).

FGFR1 = FGFR1 (Homo sapiens, UniProt P11362); assay: Thermal shift assay (TSA) of FGFR1/FGF2 complex, FGFR1 melting peak; type: binding; set-up: made in house; host or cells: Escherichia coli BL21 (DE3) Star; settings: FGF2/FGFR1 complex; for ΔTm at 25 µM: 25 μM compound; for ΔTm at 2 µM: 2 μM compound; for ΔTm at 10 µM: 10 μM compound; for ΔTm at 100 µM: 100 μM compound
From the text: as §1
Cell pellets were thawed and resuspend in 100 mL of FGFR1 Lysis Buffer per 9 g of pellet (20 mM Tris-HCl pH 8.0, 500 mM NaCl, 1 mM dithiothreitol) by stirring at 4° C. for 1 hour. Cells were lysed in 3 cycles on/off for 3 minutes each at 4° C. via sonication followed by centrifugation for 30 minutes at 16,000 RPM in rotor F20 at 4° C., after which the supernatant was discarded. This process was then repeated twice. The pellets were resuspended in 150 mL FGFR1 solubilization buffer (8 M urea, 20 mM Tris-HCL pH 8.0, 150 mM NaCl, 1 mM dithiothreitol) by stirring for 1 hour at 4° C., and the solution was subjected to centrifugation for 30 minutes at 16,000 RPM in rotor F20 at 4° C. The pellets were discarded, and the supernatant was filtered through a […] polyethersylfone (PES) filter. After filtration, the supernatant was added dropwise to 1 L FGFR1 refolding buffer (20 mM Tris-HCl pH 8.0, 150 mM NaCl, 0.5 M L-arginine, 25 mM MgCl2) using a glass column. Protein was concentrated by tangential flow from 1 L to 100 mL and dialyzed against 1 L of FGFR1 Dialysis Buffer (20 mM Tris-HCl pH 8.0, 150 mM NaCl, 25 mM MgCl2) for 2 hours at 4° C., and the dialysis step was repeated with fresh buffer for an additional 2 hours at 4° C. The material thus obtained was then centrifuged at 4000 RPM in Eppendorf tabletop centrifuge for 5 minutes and loaded onto 2×5 mL heparin columns. The columns were washed extensively (20 CV) using FGFR1 Heparin Buffer A (20 mM Tris-HCl pH 8.0, 150 mM NaCl, 25 mM MgCl2) and then eluted using FGFR1 Heparin Buffer B (20 mM Tris-HCl pH 8.0, 1.5 M NaCl, 25 mM MgCl2). A large peak was recovered that was >95% pure by SDS-PAGE analysis gel (Expected Mw: 25 KDa). The protein was collected and diluted in 20 mM Tris-HCl pH 8.0, 25 mM MgCl2 buffer in order to reach a NaCl concentration of 150 mM. The FGFR1 thus obtained was concentrated and stored at −80° C.
as §2

T1 sequence (P09038 156-288 limits assumed): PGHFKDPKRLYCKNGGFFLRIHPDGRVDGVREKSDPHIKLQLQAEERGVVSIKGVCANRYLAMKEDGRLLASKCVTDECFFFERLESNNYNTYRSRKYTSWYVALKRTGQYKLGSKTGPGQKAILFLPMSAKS
T1 sequence (P11362 142-365 partner limits assumed): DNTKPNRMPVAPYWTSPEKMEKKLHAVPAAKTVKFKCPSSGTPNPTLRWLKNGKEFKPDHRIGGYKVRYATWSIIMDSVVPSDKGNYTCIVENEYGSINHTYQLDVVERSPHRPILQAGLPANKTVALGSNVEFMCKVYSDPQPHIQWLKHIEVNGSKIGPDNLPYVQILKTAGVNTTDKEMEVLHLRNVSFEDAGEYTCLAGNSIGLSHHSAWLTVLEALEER
FGFR1, sequence (P11362 142-365 limits assumed): as the sequence (P11362 142-365 partner limits assumed) above
FGFR1, sequence (P09038 156-288 partner limits assumed): as the sequence (P09038 156-288 limits assumed) above

ΔTm at 25 µM (FGF2): -1.7 °C
ΔTm at 25 µM (FGFR1): 1.2 °C
SMILES: Clc1ccc2c(c1)CCN(C1CCN(C(c3ccccc3)c3ccccc3)CC1)C2 [Compound 5, 2-(1-benzhydrylpiperidin-4-yl)-6-chloro-1,2,3,4-tetrahydroisoquinoline]

ΔTm at 2 µM (FGF2): 0 °C
ΔTm at 2 µM (FGFR1): 14 °C
SMILES: CCN(CC)c1ccc2c(c1)CCN(C1CCN(Cc3ccc(F)cc3)CC1)C2 [Compound 85, N,N-diethyl-2-(1-(4-fluorobenzyl)piperidin-4-yl)-1,2,3,4-tetrahydroisoquinolin-6-amine]

ΔTm at 10 µM (FGF2): -0.2 °C
ΔTm at 10 µM (FGFR1): 10.7 °C
SMILES: Fc1cccc2c1CCN(C1CCN(C(c3ccccc3)c3ccccc3)CC1)C2 [Compound 7, 2-(1-benzhydrylpiperidin-4-yl)-5-fluoro-1,2,3,4-tetrahydroisoquinoline]

ΔTm at 10 µM (FGF2): -0.5 °C
ΔTm at 10 µM (FGFR1): 3.3 °C
SMILES: Fc1ccc2c(c1)CN(C1CCN(C(c3ccccc3)c3ccccc3)CC1)CC2 [Compound 8, 2-(1-benzhydrylpiperidin-4-yl)-7-fluoro-1,2,3,4-tetrahydroisoquinoline]

ΔTm at 25 µM (FGF2): -3.3 °C
ΔTm at 25 µM (FGFR1): 5.4 °C
SMILES: c1ccc(C(c2ccccc2)N2CCC(N3CCc4cccnc4C3)CC2)cc1 [Compound 14, 7-(1-benzhydrylpiperidin-4-yl)-5,6,7,8-tetrahydro-1,7-naphthyridine]

ΔTm at 25 µM (FGF2): 3.7 °C
ΔTm at 25 µM (FGFR1): 0 °C
SMILES: N#Cc1ccc2c(c1)CCN(C1CCN(C(c3ccccc3)c3ccccc3)CC1)C2 [Compound 3, 2-(1-benzhydrylpiperidin-4-yl)-1,2,3,4-tetrahydroisoquinoline-6-carbonitrile]

ΔTm at 2 µM (FGF2): -2.2 °C
ΔTm at 2 µM (FGFR1): 14.5 °C
SMILES: c1ccc(C(c2ccccc2)N2CCC(N3CCc4ccncc4C3)CC2)cc1 [Compound 4, 2-(1-benzhydrylpiperidin-4-yl)-1,2,3,4-tetrahydro-2,7-naphthyridine]

ΔTm at 100 µM (FGF2): -4.5 °C
ΔTm at 100 µM (FGFR1): 6.6 °C
SMILES: Brc1ccc2c(c1)CCN(C1CN(C(c3ccccc3)c3ccccc3)C1)C2 [Compound 43, 2-(1-benzhydrylazetidin-3-yl)-6-bromo-1,2,3,4-tetrahydroisoquinoline]

ΔTm at 25 µM (FGF2): 0 °C
ΔTm at 25 µM (FGFR1): 1.5 °C
SMILES: Fc1ccc2c(c1)CCN(C1CCN(C(c3ccccc3)c3ccccc3)CC1)C2 [Compound 6, 2-(1-benzhydrylpiperidin-4-yl)-6-fluoro-1,2,3,4-tetrahydroisoquinoline]

ΔTm at 2 µM (FGF2): -2.7 °C
ΔTm at 2 µM (FGFR1): 9.8 °C
SMILES: Fc1cccc2c1CCN(C1CN(C(c3ccccc3)c3ccccc3)C1)C2 [Compound 38, 2-(1-benzhydrylazetidin-3-yl)-5-fluoro-1,2,3,4-tetrahydroisoquinoline]

ΔTm at 100 µM (FGF2): 0 °C
ΔTm at 100 µM (FGFR1): 0 °C
SMILES: Fc1cccc2c1CN(C1CCN(C(c3ccccc3)c3ccccc3)CC1)CC2 [Compound 9, 2-(1-benzhydrylpiperidin-4-yl)-8-fluoro-1,2,3,4-tetrahydroisoquinoline]

ΔTm at 25 µM (FGF2): -3 °C
ΔTm at 25 µM (FGFR1): 2.8 °C
SMILES: c1ccc(C(c2ccccc2)N2CCC(N3CCc4cnccc4C3)CC2)cc1 [Compound 19, 2-(1-benzhydrylpiperidin-4-yl)-1,2,3,4-tetrahydro-2,6-naphthyridine]

ΔTm at 100 µM (FGF2): 0 °C
ΔTm at 100 µM (FGFR1): 0.3 °C
SMILES: Fc1ccc(CN2CCC(N3CCc4cc(Br)ccc4C3)CC2)cc1 [Compound 81, 6-bromo-2-(1-(4-fluorobenzyl)piperidin-4-yl)-1,2,3,4-tetrahydroisoquinoline]

ΔTm at 10 µM (FGF2): -2.7 °C
ΔTm at 10 µM (FGFR1): 3 °C
SMILES: c1ccc(C(c2ccccc2)N2CCC(N3CCc4ncccc4C3)CC2)cc1 [Compound 17, 6-(1-benzhydrylpiperidin-4-yl)-5,6,7,8-tetrahydro-1,6-naphthyridine]

ΔTm at 2 µM (FGF2): -3.6 °C
ΔTm at 2 µM (FGFR1): 11.6 °C
SMILES: FC1(F)CN(C2CCN(C(c3ccccc3)c3ccccc3)CC2)Cc2ccccc21 [Compound 21, 2-(1-benzhydrylpiperidin-4-yl)-4,4-difluoro-1,2,3,4-tetrahydroisoquinoline]

ΔTm at 100 µM (FGF2): 0 °C
ΔTm at 100 µM (FGFR1): -0.5 °C
SMILES: CCN(CC)c1ccc2c(c1)CCN(C1CN(C(c3ccccc3)c3ccccc3)C1)C2 [Compound 56, 2-(1-benzhydrylazetidin-3-yl)-N,N-diethyl-1,2,3,4-tetrahydroisoquinolin-6-amine]

ΔTm at 10 µM (FGF2): -1.5 °C
ΔTm at 100 µM (FGF2): -1.8 °C
ΔTm at 10 µM (FGFR1): 2 °C
ΔTm at 100 µM (FGFR1): 3 °C
SMILES: Brc1ccc2c(c1)CCN(C1CCN(C(c3ccccc3)c3ccccc3)CC1)C2 [Compound 1, 2-(1-benzhydrylpiperidin-4-yl)-6-bromo-1,2,3,4-tetrahydroisoquinoline]
